The target of experiment [1] is enzyme from E. coli (Escherichia coli, UniProt P13035). The note with it: cited from earlier work.
For experiment [2], the target named is T1, NAD-independent α-glycerol-3-phosphate dehydrogenase (Priestia megaterium, UniProt D5DYU7).
T1 sequence (D5DYU7 1-559): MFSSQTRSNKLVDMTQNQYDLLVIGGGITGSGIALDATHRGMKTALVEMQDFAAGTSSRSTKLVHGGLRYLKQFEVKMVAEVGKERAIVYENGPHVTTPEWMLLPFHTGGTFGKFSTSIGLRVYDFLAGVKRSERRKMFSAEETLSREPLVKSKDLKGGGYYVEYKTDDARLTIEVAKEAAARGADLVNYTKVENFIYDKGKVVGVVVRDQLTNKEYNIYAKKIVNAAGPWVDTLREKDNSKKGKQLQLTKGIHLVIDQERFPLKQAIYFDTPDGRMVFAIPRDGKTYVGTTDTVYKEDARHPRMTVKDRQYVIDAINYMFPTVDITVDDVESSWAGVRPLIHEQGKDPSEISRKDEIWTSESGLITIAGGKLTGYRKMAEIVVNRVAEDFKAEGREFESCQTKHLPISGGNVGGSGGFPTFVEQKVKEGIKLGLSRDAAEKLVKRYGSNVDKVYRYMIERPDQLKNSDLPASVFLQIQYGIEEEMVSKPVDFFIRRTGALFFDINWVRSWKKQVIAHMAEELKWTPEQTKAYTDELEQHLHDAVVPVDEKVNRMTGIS
In words: α-glycerol-3-phosphate dehydrogenase activity assay (rate of INT reduction, absorbance at 505nm, 37°C). The format is biochemical, B. megaterium. The note with it: concentration of inhibitor bringing about 50% inhibition. The protocol:
Aliquots of the resulting cell-free extract and other samples containing partially purified α-glycerol-3-phosphate dehydrogenase were used in the following assay test system:
The rate of change of absorbance was measured at 505nm, 37°C in a spectrophotometer. According to such test, the specific activity of the purified enzyme (from gel filtration chromatography) was 1.0 unit/mg protein; a unit is number of µmoles of INT reduced per min.

Sequence of enzyme from E. coli (P13035 whole entry): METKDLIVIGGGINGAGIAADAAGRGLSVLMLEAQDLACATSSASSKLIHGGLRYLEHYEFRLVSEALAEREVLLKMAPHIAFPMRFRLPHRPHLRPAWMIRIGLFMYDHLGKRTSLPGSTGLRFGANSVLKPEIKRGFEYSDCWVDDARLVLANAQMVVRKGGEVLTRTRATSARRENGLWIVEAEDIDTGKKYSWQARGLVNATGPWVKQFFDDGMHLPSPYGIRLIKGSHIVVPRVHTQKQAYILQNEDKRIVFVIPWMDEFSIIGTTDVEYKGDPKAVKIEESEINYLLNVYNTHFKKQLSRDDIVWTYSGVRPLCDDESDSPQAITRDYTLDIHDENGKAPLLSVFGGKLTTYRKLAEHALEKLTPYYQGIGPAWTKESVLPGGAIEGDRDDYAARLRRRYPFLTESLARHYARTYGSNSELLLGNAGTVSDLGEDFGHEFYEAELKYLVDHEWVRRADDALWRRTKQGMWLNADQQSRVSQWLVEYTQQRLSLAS

The Km is the substrate concentration at which the rate is half of its maximum. As for `O=P(O)(O)OC[C@H](O)CO` [L-α-glycerol-3-phosphate], in experiment [1], the Km is 400 µM.

For ammonium sulphate, the “50% inhibition of enzyme activity (concentration)” value in experiment [2] is reported as 1%.

Source of the values: patent EP0353049A2, “NAD-independent alpha- glycerol-3-phosphate dehydrogenases, production and use therof in triglyceride and glycerol determinations” (Genzyme (U.K.) LTD., priority 1988, dated 1990).
